{"source": "paper PMC7576996", "about": "“Antiparasitic Behavior of Trifluoromethylated Pyrazole 2-Amino-1,3,4-thiadiazole Hybrids and Their Analogues: Synthesis and Structure-Activity Relationship” (Frontiers in Pharmacology, 2020)", "key": {"[1]": {"assay": "Cytotoxicity assay in LLCMK2 epithelial cells (MTT, 72 h)", "assay_type": "cell-based", "details": "Macaca mulatta, LLCMK2 kidney epithelial cells, pH 7.2, LLCMK2, 50% inhibition of growth", "method": "(§1) All the novel trifluoromethylated pyrazoles derivatives 2a–f, 3a–f, and 4a–f were evaluated against the promastigote form of L. amazonensis and the epimastigote form of T. cruzi. The results are reported as the concentration causing a 50% inhibition in cell growth (IC50). Additionally, the toxicity of compounds was evaluated against two different cell lines: epithelial cell LLCMK2 and macrophages J774A1. The antiproliferative and cytotoxic activities are shown in Table 2 , as well as the calculated selectivity index (SI).\n(§2) 2.4. Antiproliferative activity […]\n(§3) Cytotoxicity activity was determined in LLCMK2 (epithelial cells of kidney of Macaca\n(§4) mulatta) cells and J774A1 macrophages. LLCMK2 (epithelial cells of kidney of Macaca mulatta) cells\n(§5) were cultured in Dulbecco’s modified Eagle’s medium (DMEM, pH 7.2) supplemented with 10% FBS\n(§6) at 37 °C in a 5% CO2 atmosphere. J774A1 macrophages were cultured in RPMI-1640 (pH 7.2) medium\n(§7) supplemented with 10% FBS at 37 °C in a 5% CO2 atmosphere.\n(§8) 2.4.2. Dilution of compounds\n(§9) Stock solutions of the compounds were prepared in DMSO and then diluted in the respective\n(§10) medium. The groups (controls and treated) were tested with DMSO concentrations below 1%, with\n(§11) 2.4.3. Antiproliferative assay […]\n(§12) 2.4.4. Cytotoxicity assay\n(§13) LLCMK2 cells (2.5 × 10^5 cells/mL) suspension was prepared in DMEM medium supplemented\n(§14) with 10% FBS and added to 96-well plates. Then, the plates were incubated at 37 °C in a\n(§15) CO2 atmosphere for 24h to obtain confluent cell growth. After incubation, cells were treated or not\n(§16) with different concentrations of compounds diluted in DMEM for 72 h. Macrophage (5 × 10^5 cells/mL)\n(§17) suspension was prepared in RPMI-1640 medium supplemented with 10% FBS and added to 96-well\n(§18) plates. Then, the plates were incubated at 37 °C in a CO2 atmosphere for 24h to obtain confluent cell\n(§19) growth. After incubation, cells were treated or not with different concentrations of compounds diluted\n(§20) in RPMI-1640 for 48h. After treatment, medium was removed and cells were incubated with MTT (2\n(§21) mg/mL) for 4h. Then, DMSO was added for solubilization of the formazan and analyzed with a reading\n(§22) microplate reader (BIO-TEK PowerWave XS spectrophotometer) at 392 nm. The percentage of viable\n(§23) cells was calculated in relation to the control to determine the cytotoxic concentration to 50% of the […]"}, "[2]": {"tested_on": "epimastigote form of Trypanosoma cruzi", "assay": "Antiproliferative assay, epimastigote form of Trypanosoma cruzi (XTT, 96 h)", "assay_type": "cell-based", "details": "for SI T-M, selectivity index (Macrophages CC50/T. cruzi IC50): J774A1 vs epimastigotes; for SI T-E, selectivity index (Epithelial CC50/T. cruzi IC50): LLCMK2 vs epimastigotes; for IC50: Trypanosoma cruzi, epimastigote form, 96 h, mean ± standard deviation, read-out: T. cruzi IC50", "method": "as §1\n(§24) 2.4. Antiproliferative activity\n(§25) Promastigotes forms of Leishmania amazonensis (strain WHOM/ BR/75/JOSEFA) were\n(§26) cultured in Warren medium (brain heart infusion, hemin, and folic acid; pH 7.4) supplemented with\n(§27) 10% fetal bovine serum (FBS) at 25 °C. Epimastigote forms of Trypanosoma cruzi (Y strain) were\n(§28) cultured in LIT medium (liver infusion tryptose; hemim, and folic acid; pH 7.4) supplemented with\nas §3, §4, §5, §6, §7, §8, §9, §10\n(§29) 2.4.3. Antiproliferative assay\n(§30) Promastigote forms (1 × 10^6 parasites/mL) were cultured in 96-well plates in the presence and\n(§31) absence of different concentrations of compounds diluted in Warren medium supplemented with 10%\n(§32) FBS and incubated for 72h. Epimastigote forms (1 × 10^6 parasites/mL) were cultured in 96 -well plates\n(§33) in the presence and absence of different concentrations of compounds diluted in LIT medium\n(§34) supplemented with 10% FBS and incubated for 96h. After treatment, the parasites were incu bated with\n(§35) a solution of 2,3 -bis (2 -methoxy -4-nitro -5-sulfophenyl) -2H-tetrazolium -5-carboxanilide (XTT; 0.5\n(§36) mg/mL) and phenazine methanesulfonate activator (PMS; 0.06 mg/mL) in PBS for 4h. Then, the\n(§37) absorbance was read in a microplate reader (Bio Tek - Power Wave XS) at 450 nm. The percentage of\n(§38) viable parasites was calculated in relation to the control in order to determine the concentration that\n(§39) inhibits 50% of the protozoa (IC 50).\nas §12, §13, §14, §15, §16, §17, §18, §19, §20, §21"}, "[3]": {"assay": "Cytotoxicity assay in J774A1 macrophages (MTT, 48 h)", "assay_type": "cell-based", "details": "mouse, pH 7.2, J774A1, 50% inhibition of growth", "method": "as §1, §2, §3, §4, §5, §6, §7, §8, §9, §10, §11, §12, §13, §14, §15, §16, §17, §18, §19, §20, §21, §22, §23"}, "[4]": {"tested_on": "promastigote form of Leishmania amazonensis", "assay": "Antiproliferative assay, promastigote form of Leishmania amazonensis (XTT, 72 h)", "assay_type": "cell-based", "details": "for SI L-M, selectivity index (Macrophages CC50/L. amazonensis IC50): J774A1 vs promastigotes; for SI L-E, selectivity index (Epithelial CC50/L. amazonensis IC50): LLCMK2 vs promastigotes; for IC50: Leishmania amazonensis, promastigote form, 72 h, mean ± standard deviation, read-out: L. amazonensis IC50", "method": "as §1, §24, §25, §26, §27, §28, §3, §4, §5, §6, §7, §8, §9, §10, §29, §30, §31, §32, §33, §34, §35, §36, §37, §38, §39, §12, §13, §14, §15, §16, §17, §18, §19, §20, §21"}}}
{"molecule": "Nc1nnc(-c2c(C(F)(F)F)nn(-c3ccccc3)c2-c2ccc(F)cc2)s1", "note": "[4b, 4-[(2-amino)-1,3,4-thiadiazo-5-yl]-3-trifluoromethyl-5-(4-fluorophenyl)-1-phenyl-1H-pyrazole]", "values": [{"measurement": "melting point", "result": 243.3, "unit": "°C"}, {"measurement": "CC50 at 72 h", "setting": "[1]", "result": "146 ± 5.4", "unit": "µM"}, {"measurement": "SI T-M, selectivity index (Macrophages CC50/T. cruzi IC50)", "setting": "[2]", "result": 5.99}, {"measurement": "SI T-E, selectivity index (Epithelial CC50/T. cruzi IC50)", "setting": "[2]", "result": 3.52}, {"measurement": "IC50", "setting": "[2]", "result": "41.6 ± 5.3", "unit": "µM"}, {"measurement": "CC50 at 48 h", "setting": "[3]", "result": "249 ± 6.2", "unit": "µM"}, {"measurement": "SI L-M, selectivity index (Macrophages CC50/L. amazonensis IC50)", "setting": "[4]", "result": 6.17}, {"measurement": "SI L-E, selectivity index (Epithelial CC50/L. amazonensis IC50)", "setting": "[4]", "result": 3.63}, {"measurement": "IC50", "setting": "[4]", "result": "40.4 ± 3.2", "unit": "µM"}]}
{"molecule": "Nc1nnc(-c2c(C(F)(F)F)nn(-c3ccccc3)c2-c2ccc(Cl)cc2)s1", "note": "[4c, 4-[(2-amino)-1,3,4-thiadiazo-5-yl]-5-(4-chlorophenyl)-3-trifluoromethyl-1-phenyl-1H-pyrazole]", "values": [{"measurement": "melting point", "result": 224.9, "unit": "°C"}, {"measurement": "CC50 at 72 h", "setting": "[1]", "result": "350 ± 6.1", "unit": "µM"}, {"measurement": "SI T-M, selectivity index (Macrophages CC50/T. cruzi IC50)", "setting": "[2]", "result": 9.51}, {"measurement": "SI T-E, selectivity index (Epithelial CC50/T. cruzi IC50)", "setting": "[2]", "result": 8.63}, {"measurement": "IC50", "setting": "[2]", "result": "40.5 ± 3.1", "unit": "µM"}, {"measurement": "CC50 at 48 h", "setting": "[3]", "result": "385 ± 5.8", "unit": "µM"}, {"measurement": "SI L-M, selectivity index (Macrophages CC50/L. amazonensis IC50)", "setting": "[4]", "result": 10.67}, {"measurement": "SI L-E, selectivity index (Epithelial CC50/L. amazonensis IC50)", "setting": "[4]", "result": 9.68}, {"measurement": "IC50", "setting": "[4]", "result": "36.1 ± 2.8", "unit": "µM"}]}
{"molecule": "Nc1nnc(-c2c(C(F)(F)F)nn(-c3ccccc3)c2-c2ccc(Br)cc2)s1", "note": "[4d, 4-[(2-amino)-1,3,4-thiadiazo-5-yl]-5-(4-Bromophenyl)-3-trifluoromethyl-1-phenyl-1H-pyrazole]", "values": [{"measurement": "melting point", "result": 239.2, "unit": "°C"}, {"measurement": "CC50 at 72 h", "setting": "[1]", "result": "120 ± 2.5", "unit": "µM"}, {"measurement": "SI T-M, selectivity index (Macrophages CC50/T. cruzi IC50)", "setting": "[2]", "result": 5.51}, {"measurement": "SI T-E, selectivity index (Epithelial CC50/T. cruzi IC50)", "setting": "[2]", "result": 4.50}, {"measurement": "IC50", "setting": "[2]", "result": "26.7 ± 1.4", "unit": "µM"}, {"measurement": "CC50 at 48 h", "setting": "[3]", "result": "147 ± 3.2", "unit": "µM"}, {"measurement": "SI L-M, selectivity index (Macrophages CC50/L. amazonensis IC50)", "setting": "[4]", "result": 10.01}, {"measurement": "SI L-E, selectivity index (Epithelial CC50/L. amazonensis IC50)", "setting": "[4]", "result": 8.17}, {"measurement": "IC50", "setting": "[4]", "result": "14.7 ± 0.9", "unit": "µM"}]}
{"molecule": "COc1ccc(-c2c(-c3nnc(N)s3)c(C(F)(F)F)nn2-c2ccccc2)cc1", "note": "[4f, 4-[(2-amino)-1,3,4-thiadiazo-5-yl]-3-trifluoromethyl-5-(4-methoxyphenyl)-1-phenyl-1H-pyrazole]", "values": [{"measurement": "melting point", "result": 239.1, "unit": "°C"}, {"measurement": "CC50 at 72 h", "setting": "[1]", "result": "134 ± 5.1", "unit": "µM"}, {"measurement": "SI T-M, selectivity index (Macrophages CC50/T. cruzi IC50)", "setting": "[2]", "result": 6.86}, {"measurement": "SI T-E, selectivity index (Epithelial CC50/T. cruzi IC50)", "setting": "[2]", "result": 5.87}, {"measurement": "IC50", "setting": "[2]", "result": "22.8 ± 1.2", "unit": "µM"}, {"measurement": "CC50 at 48 h", "setting": "[3]", "result": "156 ± 4.1", "unit": "µM"}, {"measurement": "SI L-M, selectivity index (Macrophages CC50/L. amazonensis IC50)", "setting": "[4]", "result": 9.14}, {"measurement": "SI L-E, selectivity index (Epithelial CC50/L. amazonensis IC50)", "setting": "[4]", "result": 7.83}, {"measurement": "IC50", "setting": "[4]", "result": "17.1 ± 1.6", "unit": "µM"}]}
{"molecule": "O=Cc1c(C(F)(F)F)nn(-c2ccccc2)c1-c1ccc([N+](=O)[O-])cc1", "note": "[compound 5, 3-trifluoromethyl-4-formyl-5-(4-nitrophenyl)-1-phenyl-1H-pyrazole]", "values": [{"measurement": "melting point", "result": "155.2 to 156.1", "unit": "°C"}, {"measurement": "CC50 at 72 h", "setting": "[1]", "result": "422 ± 12.3", "unit": "µM"}, {"measurement": "SI T-M, selectivity index (Macrophages CC50/T. cruzi IC50)", "setting": "[2]", "result": 3.03}, {"measurement": "SI T-E, selectivity index (Epithelial CC50/T. cruzi IC50)", "setting": "[2]", "result": 5.22}, {"measurement": "IC50", "setting": "[2]", "result": "80.8 ± 3.7", "unit": "µM"}, {"measurement": "CC50 at 48 h", "setting": "[3]", "result": "245 ± 2.7", "unit": "µM"}, {"measurement": "SI L-M, selectivity index (Macrophages CC50/L. amazonensis IC50)", "setting": "[4]", "result": 3.35}, {"measurement": "SI L-E, selectivity index (Epithelial CC50/L. amazonensis IC50)", "setting": "[4]", "result": 5.76}, {"measurement": "IC50", "setting": "[4]", "result": "73.1 ± 2.8", "unit": "µM"}]}
